Measured values reported in patent US20230211004A1, “TETANUS TOXOID AND CRM-BASED PEPTIDES AND METHODS OF USE” (UNIVERSITY OF GEORGIA RESEARCH FOUNDATION, INC., priority 2019, published 2023).
Entries after “also recorded” stand apart in the source; their conditions may differ.

Assays:
CD4+ T cells = format: cell-based, human
[1] = system: IFN-γ production by CD4+ T cell enriched donor PBMCs; format: cell-based, human
[2] = system: MHCII molecules (HLA-DR, HLA-DP, HLA-DQ) of Raji B cells; format: binding, human

Sequence	CD4+ T cell proliferation compared to basal growth rate (CD4+ T cells)	Donor 1 CFSE (CD4+ T cells)	Donor 3 CFSE (CD4+ T cells)	Donor 4 CFSE (CD4+ T cells)	number of donors with positive T cell proliferative response (CD4+ T cells)	Donor 1 IFN-γ [1]	Donor 2 IFN-γ [1]	Donor 3 IFN-γ [1]	Donor 4 IGN-γ [1]	IFN-γ production [1]	number of donors with significant levels of IFN-γ [1]	Donor 2 CFSE (CD4+ T cells)	T cell response against previously published TT epitopes (CD4+ T cells)	donors that gave positive / significant T cell response (CD4+ T cells)	Observed in Isotypes [2]
GYVDSIQKGIQKPK (CRM-derived peptide) [CRM26-39]	increased proliferation	* (key: * p < 0.05; ** p < 0.005; *** p < 0.0005)	* (key: * p < 0.05; ** p < 0.005; *** p < 0.0005)	*** (key: * p < 0.05; ** p < 0.005; *** p < 0.0005)	three	** (key: * p < 0.05; ** p < 0.005; *** p < 0.0005)	** (key: * p < 0.05; ** p < 0.005; *** p < 0.0005)	* (key: * p < 0.05; ** p < 0.005; *** p < 0.0005)	*** (key: * p < 0.05; ** p < 0.005; *** p < 0.0005)	significant levels of IFN-γ response; also recorded: significant production of IFN-γ	at least three				
KFIIKRYTPNNEIDSF (TT-derived peptide) [Peptide P32, reference compound]			** (key: * p < 0.05; ** p < 0.005; *** p < 0.0005)	*** (key: * p < 0.05; ** p < 0.005; *** p < 0.0005)			** (key: * p < 0.05; ** p < 0.005; *** p < 0.0005)	** (key: * p < 0.05; ** p < 0.005; *** p < 0.0005)	* (key: * p < 0.05; ** p < 0.005; *** p < 0.0005)			*** (key: * p < 0.05; ** p < 0.005; *** p < 0.0005)	no significant response		
LYNGLKFIIKR (TT-derived peptide) [TT1169-1179]		* (key: * p < 0.05; ** p < 0.005; *** p < 0.0005)	* (key: * p < 0.05; ** p < 0.005; *** p < 0.0005)		three		* (key: * p < 0.05; ** p < 0.005; *** p < 0.0005)	* (key: * p < 0.05; ** p < 0.005; *** p < 0.0005)	* (key: * p < 0.05; ** p < 0.005; *** p < 0.0005)	significant production of IFN-γ	at least three	*** (key: * p < 0.05; ** p < 0.005; *** p < 0.0005)			
GYNAPGIPLYKK (TT-derived peptide) [TT1228-1239]			** (key: * p < 0.05; ** p < 0.005; *** p < 0.0005)	*** (key: * p < 0.05; ** p < 0.005; *** p < 0.0005)				** (key: * p < 0.05; ** p < 0.005; *** p < 0.0005)	** (key: * p < 0.05; ** p < 0.005; *** p < 0.0005)					Donors 3 and 4	
NFIGALET (TT-derived peptide) [TT660-667]			** (key: * p < 0.05; ** p < 0.005; *** p < 0.0005)	*** (key: * p < 0.05; ** p < 0.005; *** p < 0.0005)		* (key: * p < 0.05; ** p < 0.005; *** p < 0.0005)		* (key: * p < 0.05; ** p < 0.005; *** p < 0.0005)	* (key: * p < 0.05; ** p < 0.005; *** p < 0.0005)	significant levels of IFN-γ response	at least three			Donors 3 and 4	
LFNRIKNNVAGEAL (TT-derived peptide) [TT94-107]	increased proliferation		*** (key: * p < 0.05; ** p < 0.005; *** p < 0.0005)	** (key: * p < 0.05; ** p < 0.005; *** p < 0.0005)	three		** (key: * p < 0.05; ** p < 0.005; *** p < 0.0005)	** (key: * p < 0.05; ** p < 0.005; *** p < 0.0005)	* (key: * p < 0.05; ** p < 0.005; *** p < 0.0005)	significant production of IFN-γ	at least three	*** (key: * p < 0.05; ** p < 0.005; *** p < 0.0005)			
CKALNPKEIE (TT-derived peptide) [TT1093-1102]	not significant compared to basal growth rate		** (key: * p < 0.05; ** p < 0.005; *** p < 0.0005)	*** (key: * p < 0.05; ** p < 0.005; *** p < 0.0005)		* (key: * p < 0.05; ** p < 0.005; *** p < 0.0005)	* (key: * p < 0.05; ** p < 0.005; *** p < 0.0005)	** (key: * p < 0.05; ** p < 0.005; *** p < 0.0005)	* (key: * p < 0.05; ** p < 0.005; *** p < 0.0005)	significant levels of IFN-γ response; also recorded: significant production of IFN-γ	at least three			Donors 3 and 4	pulled down in the -DQ IP; also recorded: DR, DQ
